According to US10702507B2, “Endoparasite control agent” (THE UNIVERSITY OF TOKYO, priority 2014, dated 2020):

tested on: 1st-stage larvae of Haemonchus contortus; test: Test for effect on motion of larvae of Haemonchus nematode; details: 20 larvae per well, 27° C./95% RH for 4 days, corrected against DMSO negative control, duplicate
Procedure: Test for Effect on Motion of Larvae of Haemonchus Nematode (Haemonchus contortus) The compound of the present invention was prepared as solutions in 100% DMSO at the final concentrations of 50 ppm, 5 ppm, 0.5 ppm, 0.05 ppm and 0.005 ppm. DMSO stands for dimethyl sulfoxide. A larval suspension containing 1st-stage larvae of Haemonchus contortus harvested by the Baermann technique (for example, see K. Nakazono et al., “Inclination of Baermann funnel wall and efficiency of nematode extraction” Proc. Assoc. Pl. Prot. Kyushu 33: 126-130 (1987)) was placed at a density of 20 larvae per well in a test plate, and 0.5 μL/well of the test solution containing the compound of the present invention diluted to a predetermined concentration was added to the test plate. The plate was kept under the conditions of 27° C./95% RH for 4 days. In the test, ivermectin was used for the positive control and DMSO was used for the negative control. The motor ability of the larvae was examined with an automatic analyzer equipped with an LCD camera. The inhibitory effect on the motion of the larvae in each treatment plot was corrected based on the inhibitory effect in the plot treated with DMSO only for the negative control. The EC50 value was calculated from the data on the corrected inhibitory effect on the motion of the larvae, and graded according to the criteria shown below. The test was conducted in duplicate per plot.

SMILES | EC50 value of corrected inhibitory effect on the motion of the larvae, graded
O=C(NCC1(c2ccc(Oc3ncc(Cl)cc3Cl)cc2Cl)CC1)c1ccccc1C(F)(F)F [Compound 1-49] | C or higher
O=C(NCCc1ccc(-c2ccc(C(F)(F)F)cc2)cc1Cl)c1ccccc1C(F)(F)F [Compound 1-50] | C or higher
O=C(NCCc1ccc(-c2cccc(C(F)(F)F)c2)cc1Cl)c1ccccc1C(F)(F)F [Compound 1-51] | C or higher
O=C(NCCc1ccc(-c2cc(F)cc(F)c2)cc1Cl)c1ccccc1C(F)(F)F [Compound 1-52] | C or higher
COc1ccc(-c2ccc(CCNC(=O)c3ccccc3C(F)(F)F)c(Cl)c2)cc1 [Compound 1-53] | C or higher
O=C(NCCc1ccc(-c2ccccc2)cc1Cl)c1ccccc1C(F)(F)F [Compound 1-54] | C or higher
O=C(NCCc1ccc(-c2ccncc2)cc1Cl)c1ccccc1C(F)(F)F [Compound 1-55] | C or higher
O=C(NCCc1ccc(-c2cccnc2)cc1Cl)c1ccccc1C(F)(F)F [Compound 1-56] | C or higher
COC(CNC(=O)c1ccccc1C(F)(F)F)c1ccc(Oc2nc3ccccc3s2)cc1Cl (stereo not shown) [Compound 1-63] | C or higher
COC(CNC(=O)c1ccccc1C(F)(F)F)c1ccc(Oc2ccc(C(F)(F)F)cc2)cc1Cl (stereo not shown) [Compound 1-65] | C or higher
COC(CNC(=O)c1ccccc1C(F)(F)F)c1ccc(Oc2cccnc2)cc1Cl (stereo not shown) [Compound 1-67] | C or higher
O=C(NCCc1ncc(-c2ccccc2)cc1Cl)c1ccccc1C(F)(F)F [Compound 2-1] | C or higher
O=C(NCCc1ncc(-c2ccc(C(F)(F)F)cc2)cc1Cl)c1ccccc1C(F)(F)F [Compound 2-2] | C or higher
O=C(NCCc1ncc(-c2cccc(C(F)(F)F)c2)cc1Cl)c1ccccc1C(F)(F)F [Compound 2-3] | C or higher
O=C(NCCc1ncc(-c2cc(F)cc(F)c2)cc1Cl)c1ccccc1C(F)(F)F [Compound 2-4] | C or higher
COc1ccc(-c2cnc(CCNC(=O)c3ccccc3C(F)(F)F)c(Cl)c2)cc1 [Compound 2-5] | C or higher
